From ChEMBL document CHEMBL2029205 (Bioorg Med Chem Lett, 2012)

How the values were obtained:
Tyrosinase [1] = molecular target: T1, Tyrosinase (Agaricus bisporus, UniProt O42713)
T1 sequence (O42713 whole entry): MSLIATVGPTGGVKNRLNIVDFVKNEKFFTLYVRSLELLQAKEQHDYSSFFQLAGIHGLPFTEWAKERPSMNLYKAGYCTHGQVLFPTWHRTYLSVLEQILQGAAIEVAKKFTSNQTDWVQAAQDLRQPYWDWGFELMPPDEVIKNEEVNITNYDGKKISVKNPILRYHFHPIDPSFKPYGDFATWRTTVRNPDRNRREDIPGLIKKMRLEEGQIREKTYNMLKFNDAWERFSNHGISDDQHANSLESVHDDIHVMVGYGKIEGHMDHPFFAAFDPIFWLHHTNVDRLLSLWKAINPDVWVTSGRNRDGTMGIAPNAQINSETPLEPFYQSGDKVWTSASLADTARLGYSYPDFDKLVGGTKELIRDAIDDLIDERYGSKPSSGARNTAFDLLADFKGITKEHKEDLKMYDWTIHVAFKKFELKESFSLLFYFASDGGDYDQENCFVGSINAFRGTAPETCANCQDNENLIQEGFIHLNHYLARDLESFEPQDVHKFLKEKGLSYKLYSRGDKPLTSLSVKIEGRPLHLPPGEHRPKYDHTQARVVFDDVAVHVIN
Description: Inhibition of mushroom tyrosinase using L-tyrosine as substrate after 20 mins by spectrophotometry

cells = settings: Mus musculus, Melan-a, 96 h
Description: Cytotoxicity against mouse Melan-a cells after 4 days by crystal voilet method

Tyrosinase [2] = molecular target: T1, Tyrosinase; assay: Inhibition of mushroom tyrosinase using L-DOPA as substrate after 20 mins by spectrophotometry
in vitro = settings: mouse, Melan-a cells
Description: Ratio of IC50 for cytotoxicity against mouse Melan-a cells to IC50 for depigmentation in mouse Melan-a cells

Structure (SMILES)	IC50 (Tyrosinase [1]) [µM]	IC50 (cells) [µM]	IC50 (Tyrosinase [2]) [µM]	selectivity ratio (in vitro)
O=C(OCc1cc(=O)c(O)co1)c1ccc(O)cc1	2.8	> 80	1.8	–
COc1ccc(C(=O)OCc2cc(=O)c(O)co2)cc1	2.03	> 80	2.05	–
O=C(OCc1cc(=O)c(O)co1)c1ccc(O)cc1O	3.51	> 80	3.61	–
COc1ccc(C(=O)OCc2cc(=O)c(O)co2)c(O)c1	10.6	> 80	20.1	–
COc1ccc(C(=O)OCc2cc(=O)c(O)co2)c(OC)c1	3.23	> 80	4.8	–
COc1ccc(C(=O)OCc2cc(=O)c(O)co2)cc1C12CC3CC(CC(C3)C1)C2	> 200	19	> 200	5.55
O=C(OCc1cc(=O)c(O)co1)c1ccc(O)c(C23CC4CC(CC(C4)C2)C3)c1	> 200	27.6	> 200	7.25
O=C(OCc1cc(=O)c(O)co1)c1cc(C23CC4CC(CC(C4)C2)C3)c(O)cc1O	> 200	27.4	> 200	3.41
COc1cc(O)c(C(=O)OCc2cc(=O)c(O)co2)cc1C12CC3CC(CC(C3)C1)C2	> 200	26.8	> 200	3
COc1cc(OC)c(C23CC4CC(CC(C4)C2)C3)cc1C(=O)OCc1cc(=O)c(O)co1	> 200	17.6	> 200	4.39
COc1ccc(C(=O)OCc2cc(=O)c(OC)co2)cc1C12CC3CC(CC(C3)C1)C2	–	31.3	–	6.54
COc1coc(COC(=O)c2ccc(O)c(C34CC5CC(CC(C5)C3)C4)c2)cc1=O	–	23.8	–	6.16
Oc1ccc(O)cc1 [HYDROQUINONE]	10	15	–	3.56
